From patent publication US4757133A, “Physiologically active peptide” (Eisai Co., Ltd., priority 1986, dated 1988)
Peptide text beside a SMILES is read from it.

Tested on: smooth muscle of a bronchus
Assay: Relaxation of muscle of bronchus removed from guinea pig (histamine-contracted tracheal chain, four-point assay)
Settings: isolated guinea pig trachea chain, 6.5×10^-6 M histamine in Krebs solution at 37° C.; samples at 10^-5 M; area value of VIP-NH2 taken as 100%
Source text: A. Determination on Relaxation of Muscle of Bronchus Removed from Guinea Pig:
The juglar vein of a male guinea pig weighing 300 g or more is cut, causing the guinea pig to be bled to death. The guinea pig undergoes thoracotomy. Immediately after the thoracotomy, 3 cm of the trachea is taken out. The trachea is immediately put in a Krebs solution. It is then cut into seven equal rings, and the cartilages are connected to one another with a cotton yarn to form a chain. Subsequently, the smooth muscle parts and cartilages opposite them are cut, so that the smooth muscle parts can be connected to one another. The preparation thus prepared is placed in an isothermic glass cell having an internal capacity of about 7 ml and suspended from above. The lower part of the preparation is fixed, while the upper part is connected to an isometric transducer, to which 0.5 g of a load has been applied, in order to determine the relaxation reaction. Sufficient amounts of 95% oxygen and 5% carbon dioxide gas are blown into the preparation. Further, a Krebs solution of 37° C. containing 6.5×10^-6 M histamine is dropped on the preparation from above at a flow rate of 3.3 ml/min. The relaxation reaction takes place to an extent proportional to the amount of a sample added to the dropped solution. By utilizing this relationship, the relaxation activity against bronchial smooth muscle with respect to the substance of the present invention is compared with that of VIP-NH2. VIP-NH2 is used at a concentration of 10^-5 M and dropped in amounts of 40 μl and 80 μl. The substance of the present invention is also used at a concentration of 10^-5 M and dropped in amounts of 10 μl and 20 μl. The value of the area (height×time) in relaxation of each case is determined. The specific activities are obtained by taking the area value of VIP-NH2 as 100% and determining the relative ratio of the area value of each case. Thus, the relaxation reactions are compared by the four-point assay method, with respect to the above-mentioned determination method, reference may be made to the following articles (e) and (f):
(e) W. L. M. Perry, Pharmacological Experiments on Isolated Preparations: E & S Livingstone LTD. 1968; and
(f) Castillo, De Beer, J. Phamac. Exp. Ther. 90, 104 (1947).

CC[C@H](C)[C@H](NC(=O)[C@H](CO)NC(=O)[C@H](CC(N)=O)NC(=O)[C@H](CC(C)C)NC(=O)[C@H](Cc1ccc(O)cc1)NC(=O)[C@H](CCCCN)NC(=O)[C@H](CCCCN)NC(=O)[C@@H](NC(=O)[C@H](C)NC(=O)[C@H](CC(C)C)NC(=O)[C@H](CCC(N)=O)NC(=O)[C@H](CCCCN)NC(=O)[C@H](CCCNC(=N)N)NC(=O)[C@H](CC(C)C)NC(=O)[C@H](CCCNC(=N)N)NC(=O)[C@@H](NC(=O)[C@H](Cc1ccc(O)cc1)NC(=O)[C@H](CC(N)=O)NC(=O)[C@H](CC(=O)O)NC(=O)[C@@H](NC(=O)[C@H](Cc1ccccc1)NC(=O)[C@@H](NC(=O)[C@H](C)NC(=O)[C@H](CC(=O)O)NC(=O)[C@H](CO)NC(=O)[C@@H](N)Cc1c[nH]cn1)C(C)C)[C@@H](C)O)[C@@H](C)O)C(C)C)C(=O)N[C@@H](CC(C)C)C(=O)N[C@@H](CC(N)=O)C(=O)NCC(=O)N[C@@H](CCCCN)C(=O)N[C@@H](CCCNC(=N)N)C(=O)O [X=Leu Y=Lys-Arg-OH] (H-HSDAVFTDNYTRLRKQLAVKKYLNSILNGKR-OH)
A: specific activity (%) obtained by method A (relaxation area value relative to VIP-NH2): 410%

CC[C@H](C)[C@H](NC(=O)[C@H](CO)NC(=O)[C@H](CC(N)=O)NC(=O)[C@H](CC(C)C)NC(=O)[C@H](Cc1ccc(O)cc1)NC(=O)[C@H](CCCCN)NC(=O)[C@H](CCCCN)NC(=O)[C@@H](NC(=O)[C@H](C)NC(=O)[C@H](CC(C)C)NC(=O)[C@H](CCC(N)=O)NC(=O)[C@H](CCCCN)NC(=O)[C@H](CCCNC(=N)N)NC(=O)[C@H](CC(C)C)NC(=O)[C@H](CCCNC(=N)N)NC(=O)[C@@H](NC(=O)[C@H](Cc1ccc(O)cc1)NC(=O)[C@H](CC(N)=O)NC(=O)[C@H](CC(=O)O)NC(=O)[C@@H](NC(=O)[C@H](Cc1ccccc1)NC(=O)[C@@H](NC(=O)[C@H](C)NC(=O)[C@H](CC(=O)O)NC(=O)[C@H](CO)NC(=O)[C@@H](N)Cc1c[nH]cn1)C(C)C)[C@@H](C)O)[C@@H](C)O)C(C)C)C(=O)N[C@@H](CC(C)C)C(=O)N[C@@H](CC(N)=O)C(=O)NCC(=O)N[C@@H](CCCCN)C(N)=O [X=Leu Y=Lys-NH2] (H-HSDAVFTDNYTRLRKQLAVKKYLNSILNGK-NH2)
A: specific activity (%) obtained by method A (relaxation area value relative to VIP-NH2): 300%

CC[C@H](C)[C@H](NC(=O)[C@H](CO)NC(=O)[C@H](CC(N)=O)NC(=O)[C@H](CC(C)C)NC(=O)[C@H](Cc1ccc(O)cc1)NC(=O)[C@H](CCCCN)NC(=O)[C@H](CCCCN)NC(=O)[C@@H](NC(=O)[C@H](C)NC(=O)[C@H](CC(C)C)NC(=O)[C@H](CCC(N)=O)NC(=O)[C@H](CCCCN)NC(=O)[C@H](CCCNC(=N)N)NC(=O)[C@H](CC(C)C)NC(=O)[C@H](CCCNC(=N)N)NC(=O)[C@@H](NC(=O)[C@H](Cc1ccc(O)cc1)NC(=O)[C@H](CC(N)=O)NC(=O)[C@H](CC(=O)O)NC(=O)[C@@H](NC(=O)[C@H](Cc1ccccc1)NC(=O)[C@@H](NC(=O)[C@H](C)NC(=O)[C@H](CC(=O)O)NC(=O)[C@H](CO)NC(=O)[C@@H](N)Cc1c[nH]cn1)C(C)C)[C@@H](C)O)[C@@H](C)O)C(C)C)C(=O)N[C@@H](CC(C)C)C(=O)N[C@@H](CC(N)=O)C(=O)NCC(=O)N[C@@H](CCCCN)C(=O)O [X=Leu Y=Lys-OH] (H-HSDAVFTDNYTRLRKQLAVKKYLNSILNGK-OH)
A: specific activity (%) obtained by method A (relaxation area value relative to VIP-NH2): 410%

CC[C@H](C)[C@H](NC(=O)[C@H](CO)NC(=O)[C@H](CC(N)=O)NC(=O)[C@H](CC(C)C)NC(=O)[C@H](Cc1ccc(O)cc1)NC(=O)[C@H](CCCCN)NC(=O)[C@H](CCCCN)NC(=O)[C@@H](NC(=O)[C@H](C)NC(=O)[C@H](CCSC)NC(=O)[C@H](CCC(N)=O)NC(=O)[C@H](CCCCN)NC(=O)[C@H](CCCNC(=N)N)NC(=O)[C@H](CC(C)C)NC(=O)[C@H](CCCNC(=N)N)NC(=O)[C@@H](NC(=O)[C@H](Cc1ccc(O)cc1)NC(=O)[C@H](CC(N)=O)NC(=O)[C@H](CC(=O)O)NC(=O)[C@@H](NC(=O)[C@H](Cc1ccccc1)NC(=O)[C@@H](NC(=O)[C@H](C)NC(=O)[C@H](CC(=O)O)NC(=O)[C@H](CO)NC(=O)[C@@H](N)Cc1c[nH]cn1)C(C)C)[C@@H](C)O)[C@@H](C)O)C(C)C)C(=O)N[C@@H](CC(C)C)C(=O)N[C@@H](CC(N)=O)C(=O)NCC(=O)N[C@@H](CCCNC(=N)N)C(=O)O [X=Met Y=Arg-OH]
A: specific activity (%) obtained by method A (relaxation area value relative to VIP-NH2): 220%

CC[C@H](C)[C@H](NC(=O)[C@H](CO)NC(=O)[C@H](CC(N)=O)NC(=O)[C@H](CC(C)C)NC(=O)[C@H](Cc1ccc(O)cc1)NC(=O)[C@H](CCCCN)NC(=O)[C@H](CCCCN)NC(=O)[C@@H](NC(=O)[C@H](C)NC(=O)[C@H](CCSC)NC(=O)[C@H](CCC(N)=O)NC(=O)[C@H](CCCCN)NC(=O)[C@H](CCCNC(=N)N)NC(=O)[C@H](CC(C)C)NC(=O)[C@H](CCCNC(=N)N)NC(=O)[C@@H](NC(=O)[C@H](Cc1ccc(O)cc1)NC(=O)[C@H](CC(N)=O)NC(=O)[C@H](CC(=O)O)NC(=O)[C@@H](NC(=O)[C@H](Cc1ccccc1)NC(=O)[C@@H](NC(=O)[C@H](C)NC(=O)[C@H](CC(=O)O)NC(=O)[C@H](CO)NC(=O)[C@@H](N)Cc1c[nH]cn1)C(C)C)[C@@H](C)O)[C@@H](C)O)C(C)C)C(=O)N[C@@H](CC(C)C)C(=O)N[C@@H](CC(N)=O)C(=O)NCC(=O)N[C@@H](CCCCN)C(=O)N[C@@H](CCCNC(=N)N)C(=O)O [X=Met Y=Lys-Arg-OH]
A: specific activity (%) obtained by method A (relaxation area value relative to VIP-NH2): 460%

CC[C@H](C)[C@H](NC(=O)[C@H](CO)NC(=O)[C@H](CC(N)=O)NC(=O)[C@H](CC(C)C)NC(=O)[C@H](Cc1ccc(O)cc1)NC(=O)[C@H](CCCCN)NC(=O)[C@H](CCCCN)NC(=O)[C@@H](NC(=O)[C@H](C)NC(=O)[C@H](CCSC)NC(=O)[C@H](CCC(N)=O)NC(=O)[C@H](CCCCN)NC(=O)[C@H](CCCNC(=N)N)NC(=O)[C@H](CC(C)C)NC(=O)[C@H](CCCNC(=N)N)NC(=O)[C@@H](NC(=O)[C@H](Cc1ccc(O)cc1)NC(=O)[C@H](CC(N)=O)NC(=O)[C@H](CC(=O)O)NC(=O)[C@@H](NC(=O)[C@H](Cc1ccccc1)NC(=O)[C@@H](NC(=O)[C@H](C)NC(=O)[C@H](CC(=O)O)NC(=O)[C@H](CO)NC(=O)[C@@H](N)Cc1c[nH]cn1)C(C)C)[C@@H](C)O)[C@@H](C)O)C(C)C)C(=O)N[C@@H](CC(C)C)C(=O)N[C@@H](CC(N)=O)C(=O)NCC(=O)N[C@@H](CCCCN)C(N)=O [X=Met Y=Lys-NH2]
A: specific activity (%) obtained by method A (relaxation area value relative to VIP-NH2): 140%

CC[C@H](C)[C@H](NC(=O)[C@H](CO)NC(=O)[C@H](CC(N)=O)NC(=O)[C@H](CC(C)C)NC(=O)[C@H](Cc1ccc(O)cc1)NC(=O)[C@H](CCCCN)NC(=O)[C@H](CCCCN)NC(=O)[C@@H](NC(=O)[C@H](C)NC(=O)[C@H](CCSC)NC(=O)[C@H](CCC(N)=O)NC(=O)[C@H](CCCCN)NC(=O)[C@H](CCCNC(=N)N)NC(=O)[C@H](CC(C)C)NC(=O)[C@H](CCCNC(=N)N)NC(=O)[C@@H](NC(=O)[C@H](Cc1ccc(O)cc1)NC(=O)[C@H](CC(N)=O)NC(=O)[C@H](CC(=O)O)NC(=O)[C@@H](NC(=O)[C@H](Cc1ccccc1)NC(=O)[C@@H](NC(=O)[C@H](C)NC(=O)[C@H](CC(=O)O)NC(=O)[C@H](CO)NC(=O)[C@@H](N)Cc1c[nH]cn1)C(C)C)[C@@H](C)O)[C@@H](C)O)C(C)C)C(=O)N[C@@H](CC(C)C)C(=O)N[C@@H](CC(N)=O)C(=O)NCC(=O)N[C@@H](CCCCN)C(=O)O [X=Met Y=Lys-OH]
A: specific activity (%) obtained by method A (relaxation area value relative to VIP-NH2): 300%

CC[C@H](C)[C@H](NC(=O)[C@H](CO)NC(=O)[C@H](CC(N)=O)NC(=O)[C@H](CC(C)C)NC(=O)[C@H](Cc1ccc(O)cc1)NC(=O)[C@H](CCCCN)NC(=O)[C@H](CCCCN)NC(=O)[C@@H](NC(=O)[C@H](C)NC(=O)[C@H](CCSC)NC(=O)[C@H](CCC(N)=O)NC(=O)[C@H](CCCCN)NC(=O)[C@H](CCCNC(=N)N)NC(=O)[C@H](CC(C)C)NC(=O)[C@H](CCCNC(=N)N)NC(=O)[C@@H](NC(=O)[C@H](Cc1ccc(O)cc1)NC(=O)[C@H](CC(N)=O)NC(=O)[C@H](CC(=O)O)NC(=O)[C@@H](NC(=O)[C@H](Cc1ccccc1)NC(=O)[C@@H](NC(=O)[C@H](C)NC(=O)[C@H](CC(=O)O)NC(=O)[C@H](CO)NC(=O)[C@@H](N)Cc1c[nH]cn1)C(C)C)[C@@H](C)O)[C@@H](C)O)C(C)C)C(=O)N[C@@H](CC(C)C)C(=O)N[C@@H](CC(N)=O)C(=O)NCC(=O)O [X=Met Y=OH]
A: specific activity (%) obtained by method A (relaxation area value relative to VIP-NH2): 70%
